Measured values published in PubChem BioAssay AID1259407 (Chemical Carcinogenesis Research Information System (CCRIS), 2018).
Calls of active or inactive are those of the source. How the calls were made is not given here.

Test system: CCRIS mutagenicity, Ames/micronucleus/aberration tests
Assay: CCRIS mutagenicity studies
[1] = Test System: AMES SALMONELLA TYPHIMURIUM, Strain/Indicator: TA98, Metabolic Activation: NONE, Method: PREINCUBATION
[2] = Test System: AMES SALMONELLA TYPHIMURIUM, Strain/Indicator: TA98, Metabolic Activation: NONE, Method: STANDARD PLATE
[3] = Test System: AMES SALMONELLA TYPHIMURIUM, Strain/Indicator: TA100, Metabolic Activation: NONE, Method: PREINCUBATION
[4] = Test System: AMES SALMONELLA TYPHIMURIUM, Strain/Indicator: TA100, Metabolic Activation: NONE, Method: STANDARD PLATE
[5] = Test System: AMES SALMONELLA TYPHIMURIUM, Strain/Indicator: TA1535, Metabolic Activation: NONE, Method: PREINCUBATION
[6] = Test System: AMES SALMONELLA TYPHIMURIUM, Strain/Indicator: TA1535, Metabolic Activation: NONE, Method: STANDARD PLATE
[7] = Test System: AMES SALMONELLA TYPHIMURIUM, Strain/Indicator: TA1537, Metabolic Activation: NONE, Method: PREINCUBATION
[8] = Test System: AMES SALMONELLA TYPHIMURIUM, Strain/Indicator: TA1537, Metabolic Activation: NONE, Method: STANDARD PLATE

Measured: mutagenic call

FC(F)(F)c1cccc(Cl)c1
inactive: Test System: AMES SALMONELLA TYPHIMURIUM, Strain/Indicator: TA97, Metabolic Activation: HAMSTER, LIVER, S-9, AROCLOR 1254 (10%), Method: PREINCUBATION inactive; negative | Test System: AMES SALMONELLA TYPHIMURIUM, Strain/Indicator: TA97, Metabolic Activation: HAMSTER, LIVER, S-9, AROCLOR 1254 (30%), Method: PREINCUBATION inactive; negative | Test System: AMES SALMONELLA TYPHIMURIUM, Strain/Indicator: TA97, Metabolic Activation: NONE, Method: PREINCUBATION inactive; negative | Test System: AMES SALMONELLA TYPHIMURIUM, Strain/Indicator: TA97, Metabolic Activation: RAT, LIVER, S-9, AROCLOR 1254 (10%), Method: PREINCUBATION inactive; negative | Test System: AMES SALMONELLA TYPHIMURIUM, Strain/Indicator: TA97, Metabolic Activation: RAT, LIVER, S-9, AROCLOR 1254 (30%), Method: PREINCUBATION inactive; negative | Test System: AMES SALMONELLA TYPHIMURIUM, Strain/Indicator: TA98, Metabolic Activation: HAMSTER, LIVER, S-9, AROCLOR 1254 (10%), Method: PREINCUBATION inactive; negative | Test System: AMES SALMONELLA TYPHIMURIUM, Strain/Indicator: TA98, Metabolic Activation: HAMSTER, LIVER, S-9, AROCLOR 1254 (30%), Method: PREINCUBATION inactive; negative | [1] inactive; negative | [2] inactive; negative | Test System: AMES SALMONELLA TYPHIMURIUM, Strain/Indicator: TA98, Metabolic Activation: RAT, LIVER, S-9, AROCLOR 1254 (10%), Method: PREINCUBATION inactive; negative | Test System: AMES SALMONELLA TYPHIMURIUM, Strain/Indicator: TA98, Metabolic Activation: RAT, LIVER, S-9, AROCLOR 1254 (30%), Method: PREINCUBATION inactive; negative | Test System: AMES SALMONELLA TYPHIMURIUM, Strain/Indicator: TA98, Metabolic Activation: RAT, LIVER, S-9, AROCLOR 1254, Method: STANDARD PLATE inactive; negative | Test System: AMES SALMONELLA TYPHIMURIUM, Strain/Indicator: TA100, Metabolic Activation: HAMSTER, LIVER, S-9, AROCLOR 1254 (10%), Method: PREINCUBATION inactive; negative | Test System: AMES SALMONELLA TYPHIMURIUM, Strain/Indicator: TA100, Metabolic Activation: HAMSTER, LIVER, S-9, AROCLOR 1254 (30%), Method: PREINCUBATION inactive; negative | [3] inactive; negative | [4] inactive; negative | Test System: AMES SALMONELLA TYPHIMURIUM, Strain/Indicator: TA100, Metabolic Activation: RAT, LIVER, S-9, AROCLOR 1254 (10%), Method: PREINCUBATION inactive; negative | Test System: AMES SALMONELLA TYPHIMURIUM, Strain/Indicator: TA100, Metabolic Activation: RAT, LIVER, S-9, AROCLOR 1254 (30%), Method: PREINCUBATION inactive; negative | Test System: AMES SALMONELLA TYPHIMURIUM, Strain/Indicator: TA100, Metabolic Activation: RAT, LIVER, S-9, AROCLOR 1254, Method: STANDARD PLATE inactive; negative | Test System: AMES SALMONELLA TYPHIMURIUM, Strain/Indicator: TA1535, Metabolic Activation: HAMSTER, LIVER, S-9, AROCLOR 1254 (10%), Method: PREINCUBATION inactive; negative | Test System: AMES SALMONELLA TYPHIMURIUM, Strain/Indicator: TA1535, Metabolic Activation: HAMSTER, LIVER, S-9, AROCLOR 1254 (30%), Method: PREINCUBATION inactive; negative | [5] inactive; negative | [6] inactive; negative | Test System: AMES SALMONELLA TYPHIMURIUM, Strain/Indicator: TA1535, Metabolic Activation: RAT, LIVER, S-9, AROCLOR 1254 (10%), Method: PREINCUBATION inactive; negative | Test System: AMES SALMONELLA TYPHIMURIUM, Strain/Indicator: TA1535, Metabolic Activation: RAT, LIVER, S-9, AROCLOR 1254 (30%), Method: PREINCUBATION inactive; negative | Test System: AMES SALMONELLA TYPHIMURIUM, Strain/Indicator: TA1535, Metabolic Activation: RAT, LIVER, S-9, AROCLOR 1254, Method: STANDARD PLATE inactive; negative | Test System: AMES SALMONELLA TYPHIMURIUM, Strain/Indicator: TA1537, Metabolic Activation: HAMSTER, LIVER, S-9, AROCLOR 1254 (30%), Method: PREINCUBATION inactive; negative | [7] inactive; negative | [8] inactive; negative | Test System: AMES SALMONELLA TYPHIMURIUM, Strain/Indicator: TA1537, Metabolic Activation: RAT, LIVER, S-9, AROCLOR 1254 (30%), Method: PREINCUBATION inactive; negative | Test System: AMES SALMONELLA TYPHIMURIUM, Strain/Indicator: TA1537, Metabolic Activation: RAT, LIVER, S-9, AROCLOR 1254, Method: STANDARD PLATE inactive; negative | Test System: AMES SALMONELLA TYPHIMURIUM, Strain/Indicator: TA1538, Metabolic Activation: NONE, Method: STANDARD PLATE inactive; negative | Test System: AMES SALMONELLA TYPHIMURIUM, Strain/Indicator: TA1538, Metabolic Activation: RAT, LIVER, S-9, AROCLOR 1254, Method: STANDARD PLATE inactive; negative

CN(N=O)C(=O)Nc1ccc(Cl)cc1
active: End Point: IN VITRO CHROMOSOMAL ABERRATIONS, Test System: CHINESE HAMSTER V79-E CELLS, Metabolic Activation: NONE active; weakly positive

C=CCc1[c-]cccc1.C=CCc1[c-]cccc1.[Pt+2].c1ccc(P(c2ccccc2)c2ccccc2)cc1.c1ccc(P(c2ccccc2)c2ccccc2)cc1
inactive: Test System: AMES SALMONELLA TYPHIMURIUM, Strain/Indicator: TA92, Metabolic Activation: NONE, Method: STANDARD PLATE inactive; negative | [2] inactive; negative | [4] inactive; negative | Test System: AMES SALMONELLA TYPHIMURIUM, Strain/Indicator: TA2410, Metabolic Activation: NONE, Method: STANDARD PLATE inactive; negative

Nn1c2ccccc2c2cnccc21
inactive: Test System: AMES SALMONELLA TYPHIMURIUM, Strain/Indicator: TA1537, Metabolic Activation: RAT, LIVER, S-9, PHENOBARBITAL, Method: PREINCUBATION inactive; negative
active: [7] active; positive

Cc1ccc(C)c2c3c(ccc12)C(O)C(O)C1OC31 (stereo not given)
active: [2] active; positive | [4] active; positive

CC(C)c1ccccc1O
inactive: [1] inactive; negative | Test System: AMES SALMONELLA TYPHIMURIUM, Strain/Indicator: TA98, Metabolic Activation: RAT LIVER S-9, PHENOBARBITAL AND BETA-NAPHTHOFLAVONE, Method: PREINCUBATION inactive; negative | [3] inactive; negative | Test System: AMES SALMONELLA TYPHIMURIUM, Strain/Indicator: TA100, Metabolic Activation: RAT LIVER S-9, PHENOBARBITAL AND BETA-NAPHTHOFLAVONE, Method: PREINCUBATION inactive; negative | [5] inactive; negative | Test System: AMES SALMONELLA TYPHIMURIUM, Strain/Indicator: TA1535, Metabolic Activation: RAT LIVER S-9, PHENOBARBITAL AND BETA-NAPHTHOFLAVONE, Method: PREINCUBATION inactive; negative | [7] inactive; negative | Test System: AMES SALMONELLA TYPHIMURIUM, Strain/Indicator: TA1537, Metabolic Activation: RAT LIVER S-9, PHENOBARBITAL AND BETA-NAPHTHOFLAVONE, Method: PREINCUBATION inactive; negative | Test System: E.COLI, Strain/Indicator: WP2UVRA/PKM101, Metabolic Activation: NONE, Method: PREINCUBATION inactive; negative | Test System: E.COLI, Strain/Indicator: WP2UVRA/PKM101, Metabolic Activation: RAT LIVER S-9, PHENOBARBITAL AND BETA-NAPHTHOFLAVONE, Method: PREINCUBATION inactive; negative

OC(Nc1snc2ccccc12)C(Cl)(Cl)Cl (stereo not given)
inactive: [2] inactive; negative | Test System: AMES SALMONELLA TYPHIMURIUM, Strain/Indicator: TA98, Metabolic Activation: S-9, Method: STANDARD PLATE inactive; negative | [4] inactive; negative | Test System: AMES SALMONELLA TYPHIMURIUM, Strain/Indicator: TA100, Metabolic Activation: S-9, Method: STANDARD PLATE inactive; negative | [6] inactive; negative | Test System: AMES SALMONELLA TYPHIMURIUM, Strain/Indicator: TA1535, Metabolic Activation: S-9, Method: STANDARD PLATE inactive; negative | [8] inactive; negative | Test System: AMES SALMONELLA TYPHIMURIUM, Strain/Indicator: TA1537, Metabolic Activation: S-9, Method: STANDARD PLATE inactive; negative
